Data as given in US10351500B2, “Method of using of dihydro-resveratrol or its stilbenoid derivatives and/or chemical variants as antimicrobial agents” (Hong Kong Baptist University, priority 2015, dated 2019).

Legend:
[1] = test system: HCT-116 human colorectal carcinoma xenograft tumor; assay: HCT-116 nude mouse xenograft model; type: in vivo, BALB/c nude mice; conditions: i.p. every other day, 5-FU 25 mg/kg, D-res 100 mg/kg
Text: All animal studies were approved and performed according to Animal Care and Use Guidelines of the Animal Ethics Committee at Hong Kong Baptist University. BALB/c nude mice, SPF class, male, 6-8 weeks old, were purchased from BioLASCO, Taiwan. Before the xenograft experiment, the mice were acclimatized to SPF class laboratory conditions for a week.
HCT-116 cells in logarithmic growth phase were collected by trypsinization. After centrifugation and rinsing, cells were re-suspended in serum-free DMEM medium at 3×10^7 cells/mL. Nude mice were skin disinfected with 75% medical ethanol, subcutaneously injected with 100 μL of the HCT-116 cell suspension using a 25-G syringe to their left flank. The same procedure was repeated for the tumor cell injection to the right flank.
Seven days after tumor cell injection, 24 mice with tumor volumes of 32 mm^3 to 178 mm^3 were randomly assigned into 3 groups; the average initial tumor volumes in each group of mice were 78.04±7.76 mm^3 (vehicle, 8 mice), 78.76±9.40 mm^3 (5-FU, 8 mice), 78.01±7.75 mm^3 (D-res, 8 mice) respectively.
Vehicle solution: 2.5% Ethanol and Cremphor EL (1:1 v/v) dissolved in physiological saline.
5-FU solution: 5-FU powder was dissolved in 2.5% Ethanol and Cremphor EL to a concentration of 5 mg/mL.
D-res solution: Dihydro-resveratrol powder was dissolved in 2.5% Ethanol and Cremphor EL solution to a concentration of 20 mg/mL.
Vehicle group (n=8): 2.5% Ethanol and Cremphor EL solution was intraperitoneally injected every other day for 21 days.
5-FU group (n=8): 5-FU solution was given to mice at 25 mg/kg by intraperitoneal injection every other day for 21 days.
D-res group (n=8): D-res solution was given to mice at 100 mg/kg by intraperitoneal injection every other day for 21 days. This is equivalent to a dosage of no less than 8.13 mg/kg of bodily weight in human.

Streptococcus mutans = assay: anti-bacterial growth inhibition, S. mutans; type: cell-based; conditions: S. mutans; for inhibition at 25 µM / inhibition at 50 µM / inhibition at 100 µM: Streptococcus mutans, 10 hours, 30° C., OD 600 nm; for inhibition at 25 µM: read-out: Inhibition rate (25 μM); for inhibition at 50 µM: read-out: Inhibition rate (50 μM); for inhibition at 100 µM: read-out: Inhibition rate (100 μM)
Protocol: (§1) Evaluation of anti-bacterial activity. In a single well of the 96-well microplate, 10 μL of the testing compound is added into 190 μL of growth medium growth medium (BBL™ Brain Heart Infusion) containing an overnight culture of Streptococcus mutans or Streptococcus sobrinus at a density of approximately 5×10^5 CFU. The testing compounds include dihydro-resveratrol and DR1 to DR11. Wells incubated with 10 μL 0.5% DMSO only (i.e. no testing compound) are served as the experimental control of bacterial growth whilst those incubated with growth medium only (i.e. no bacteria) are served as the negative control. […] The percentage of growth inhibition of S. mutans by the different concentrations of testing compounds is shown in Table 12 whereas the percentage of growth inhibition of S. sobrinus is shown in Table 13. The images of S. mutans culture are captured post treatment of dihydro-resveratrol (100 μM) and DR8 (100 μM) when compared to the growth of experimental control and negative control (FIG. 31).

Streptococcus sobrinus = assay: anti-bacterial growth inhibition, S. sobrinus; type: cell-based; conditions: S. sobrinus; for inhibition at 25 µM / inhibition at 50 µM / inhibition at 100 µM: Streptococcus sobrinus, 10 hours, 30° C., OD 600 nm; for inhibition at 25 µM: read-out: Inhibition rate (25 μM); for inhibition at 50 µM: read-out: Inhibition rate (50 μM); for inhibition at 100 µM: read-out: Inhibition rate (100 μM)
Protocol: as §1

[2] = test system: Trichophyton mentagrophytes; assay: anti-fungal growth inhibition, T. mentagrophytes; type: cell-based; conditions: T. mentagraphytes; for inhibition at 25 µM / inhibition at 50 µM / inhibition at 100 µM: Trichophyton mentagrophytes, 168 h, one week, 30° C., OD 510 nm; for inhibition at 25 µM: read-out: Inhibition rate (25 μM); for inhibition at 50 µM: read-out: Inhibition rate (50 μM); for inhibition at 100 µM: read-out: Inhibition rate (100 μM)
Protocol: (§2) Evaluation of anti-fungal activity. In a single well of the 96-well microplate, 10 μL of the testing compound is added into 190 μL of growth medium (Difco™ YM) containing an overnight culture of Trichophyton rubrum or Trichophyton mentagrophytes at a density of approximately 5×10^5 CFU. The testing compounds include dihydro-resveratrol and DR1 to DR11. Wells incubated with 10 μL 0.5% DMSO only (i.e. no testing compound) are served as the experimental control of fungal growth whilst those incubated with growth medium only (i.e. no fungi) are served as the negative control. […] The percentage of growth inhibition of T. mentagrophytes by the different concentrations of testing compounds is shown in Table 10 whilst the percentage of growth inhibition of T. rubrum is shown in Table 11. The images of T. mentagrophytes culture are captured post treatment of dihydro-resveratrol (100 μM) and DR8 (100 μM) when compared to the growth of experimental control and negative control (FIG. 30).

[3] = ABTS radical decolorization assay (antioxidant capacity); type: biochemical; conditions: 15 min, 734 nm
Trichophyton rubrum = assay: anti-fungal growth inhibition, T. rubrum; type: cell-based; conditions: T. rubrum; for inhibition at 25 µM / inhibition at 50 µM / inhibition at 100 µM: Trichophyton rubrum, 168 h, one week, 30° C., OD 510 nm; for inhibition at 25 µM: read-out: Inhibition rate (25 μM); for inhibition at 50 µM: read-out: Inhibition rate (50 μM); for inhibition at 100 µM: read-out: Inhibition rate (100 μM)
Protocol: as §2

| Compound | inhibition at 25 µM (Streptococcus mutans) | inhibition at 50 µM (Streptococcus mutans) | inhibition at 100 µM (Streptococcus mutans) | inhibition at 25 µM (Streptococcus sobrinus) | inhibition at 50 µM (Streptococcus sobrinus) | inhibition at 100 µM (Streptococcus sobrinus) | inhibition at 25 µM [2] | inhibition at 50 µM [2] | inhibition at 100 µM [2] | Trolox equivalent (mg), antioxidant capacity [3] | inhibition at 25 µM (Trichophyton rubrum) | inhibition at 50 µM (Trichophyton rubrum) | inhibition at 100 µM (Trichophyton rubrum) | further results |
| --- | --- | --- | --- | --- | --- | --- | --- | --- | --- | --- | --- | --- | --- | --- |
| O=c1[nH]cc(F)c(=O)[nH]1 [Compound 5-FU, fluorouracil, reference compound] | – | – | – | – | – | – | – | – | – | – | – | – | – | Tumor Volume (mm^3) ([1]; Day 1 (initial)): 78.76 ± 9.40 mm^3; Tumor Volume (mm^3) ([1]; Day 4): 128.05 ± 12.25 mm^3; Tumor Volume (mm^3) ([1]; Day 7): 187.75 ± 21.56 mm^3; Tumor Volume (mm^3) ([1]; Day 10): 286.6 ± 28.89 mm^3; Tumor Volume (mm^3) ([1]; Day 13): 419.1 ± 45.77 mm^3; Tumor Volume (mm^3) ([1]; Day 16): 489.8 ± 160.66 mm^3; Tumor Volume (mm^3) ([1]; Day 19): 514.17 ± 160.66 mm^3; Tumor Volume (mm^3) ([1]; Day 21): 583.6 ± 160.66 mm^3; Tumor Volume (mm^3) ([1]; Day 22): 655.69 ± 160.66 mm^3; Tumor weight ([1]; treated for 21 days): 0.68 ± 0.08 g |
| CCOC(=O)COc1ccc(CCc2cc(OCC(=O)OCC)cc(OCC(=O)OCC)c2)cc1 [DR1] | 2.31% | 8.55% | 4.78% | 9.96% | 27.7% | 14.2% | 4.33% | 11.2% | 36.4% | 105.736 mg | 3.25% | 1.15% | 22.6% | – |
| CCCOc1ccc(CCc2cc(OCCC)cc(OCCC)c2)cc1 [DR2] | 0.04% | 3.62% | 3.65% | 6.33% | 19.9% | 19% | 4.72% | 9.81% | 33.7% | 30.178 mg | 14.1% | 18.3% | 37.8% | – |
| C=CCOc1ccc(CCc2cc(OCC=C)cc(OCC=C)c2)cc1 [DR3] | 4.18% | 2.61% | 7.05% | 11.7% | 24.2% | 21.1% | 4.64% | 4.77% | 20.1% | 119.325 mg | 4.55% | 4.25% | 22.3% | – |
| CCCC(=O)Oc1ccc(CCc2cc(OC(=O)CCC)cc(OC(=O)CCC)c2)cc1 [DR4] | 6.64% | 3.99% | 6.35% | 7.35% | 20.6% | 18.1% | 6.03% | 10.4% | 32.6% | 94.277 mg | 11.2% | 16.6% | 36.1% | – |
| O=C(Oc1ccc(CCc2cc(OC(=O)c3ccc(Cl)cc3)cc(OC(=O)c3ccc(Cl)cc3)c2)cc1)c1ccc(Cl)cc1 [DR5] | 2.67% | 8.35% | 2.22% | 12.2% | 26.2% | 18.6% | 3.01% | 6.93% | 14.1% | 0 mg | 0.71% | 4.25% | 5.78% | – |
| COc1ccc(C(=O)Oc2ccc(CCc3cc(OC(=O)c4ccc(OC)cc4)cc(OC(=O)c4ccc(OC)cc4)c3)cc2)cc1 [DR6] | 6.52% | 4.36% | 5.96% | 5.99% | 15.7% | 7.54% | 3.33% | 8.01% | 21.6% | 0 mg | 5.81% | 2.49% | 20.9% | – |
| O=C(Oc1ccc(CCc2cc(OC(=O)c3ccccc3)cc(OC(=O)c3ccccc3)c2)cc1)c1ccccc1 [DR7] | 10.1% | 1.55% | 2.48% | 6.33% | 14.2% | 12.5% | 3.79% | 0.44% | 18.6% | 0 mg | 3.06% | 6.17% | 11.6% | – |
| C=CC(=O)Oc1ccc(CCc2cc(OC(=O)C=C)cc(OC(=O)C=C)c2)cc1 [DR8] | 17.1% | 17.6% | 68% | 22.7% | 43.8% | 79.3% | 83.1% | 80.7% | 78.8% | 15.893 mg | 78.9% | 77.8% | 77.7% | inhibitory effect among the testing compounds (Streptococcus mutans; 10-hour incubation): highest inhibitory effect; inhibitory effect among the testing compounds (Streptococcus sobrinus; 10-hour incubation): highest inhibitory effect; inhibitory effect among the testing compounds ([2]; one-week incubation): highest inhibitory effect; inhibitory effect among the testing compounds (Trichophyton rubrum; one-week incubation): highest inhibitory effect |
| O=C(Oc1ccc(CCc2cc(OC(=O)C3CCCC3)cc(OC(=O)C3CCCC3)c2)cc1)C1CCCC1 [DR9] | 0.68% | 6.36% | 8.39% | 14.3% | 0.13% | 9.87% | 2.19% | 14.7% | 25.9% | 0 mg | 7.05% | 2.57% | 1.5% | – |
